Earlier results, collected in patent publication US8541178B2, “Analysis of antibody drug conjugates by bead-based affinity capture and mass spectrometry” (Genentech, Inc., priority 2008, dated 2013).

Settings: more cytotoxic than conventional cancer chemotherapeutic agents

## COc1cc2cc(c1Cl)N(C)C(=O)C[C@H](OC(=O)[C@H](C)N(C)C(C)=O)[C@]1(C)O[C@H]1[C@H](C)[C@@H]1C[C@@](O)(NC(=O)O1)[C@H](OC)/C=C/C=C(\C)C2 [Maytansine]
  Cytotoxicity relative to methotrexate, daunorubicin, and vincristine: 100- to 1000 fold
